Measurements: ChEMBL document CHEMBL1201862, “PubChem BioAssay data set” (2004)
The source made the active and inactive calls.

Experiments:
[1] = molecular target: T1, Calpain-2 catalytic subunit (Sus scrofa, UniProt P43367); test: pig calpain II inhibitor potency, dose response, biochemical, fluorogenic peptide substrate (AID 1420); format: functional
T1 sequence (P43367 whole entry): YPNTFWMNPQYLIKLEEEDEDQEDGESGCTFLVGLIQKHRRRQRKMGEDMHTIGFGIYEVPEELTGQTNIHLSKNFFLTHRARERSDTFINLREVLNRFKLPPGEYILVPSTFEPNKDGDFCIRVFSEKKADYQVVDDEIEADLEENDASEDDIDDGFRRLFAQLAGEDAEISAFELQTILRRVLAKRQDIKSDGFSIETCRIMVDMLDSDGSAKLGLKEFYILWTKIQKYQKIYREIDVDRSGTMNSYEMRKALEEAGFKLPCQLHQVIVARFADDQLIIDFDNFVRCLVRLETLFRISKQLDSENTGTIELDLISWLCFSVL

[2] = molecular target: Intestinal-type alkaline phosphatase (Mus musculus, UniProt P24822); test: PubChem AID 488874; format: functional
Sequence of Intestinal-type alkaline phosphatase (Mus musculus, UniProt P24822) (P24822 whole entry): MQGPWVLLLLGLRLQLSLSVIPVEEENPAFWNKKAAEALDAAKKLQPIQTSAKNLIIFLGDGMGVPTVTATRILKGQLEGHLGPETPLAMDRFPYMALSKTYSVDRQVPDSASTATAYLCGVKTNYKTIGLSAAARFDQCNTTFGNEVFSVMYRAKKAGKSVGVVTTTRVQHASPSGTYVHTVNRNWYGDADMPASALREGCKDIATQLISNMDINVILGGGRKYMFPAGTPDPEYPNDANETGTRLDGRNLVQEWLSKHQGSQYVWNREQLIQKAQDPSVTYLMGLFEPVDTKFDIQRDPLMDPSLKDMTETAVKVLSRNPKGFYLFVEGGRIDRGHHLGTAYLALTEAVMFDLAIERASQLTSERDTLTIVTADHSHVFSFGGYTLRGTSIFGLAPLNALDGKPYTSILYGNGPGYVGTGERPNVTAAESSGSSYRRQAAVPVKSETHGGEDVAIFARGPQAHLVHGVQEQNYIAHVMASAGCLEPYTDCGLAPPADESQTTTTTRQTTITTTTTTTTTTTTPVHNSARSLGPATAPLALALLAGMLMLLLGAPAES

[3] = molecular target: T2, Histone-lysine N-methyltransferase NSD2 (Homo sapiens, UniProt O96028); format: biochemical
T2 sequence (O96028 whole entry): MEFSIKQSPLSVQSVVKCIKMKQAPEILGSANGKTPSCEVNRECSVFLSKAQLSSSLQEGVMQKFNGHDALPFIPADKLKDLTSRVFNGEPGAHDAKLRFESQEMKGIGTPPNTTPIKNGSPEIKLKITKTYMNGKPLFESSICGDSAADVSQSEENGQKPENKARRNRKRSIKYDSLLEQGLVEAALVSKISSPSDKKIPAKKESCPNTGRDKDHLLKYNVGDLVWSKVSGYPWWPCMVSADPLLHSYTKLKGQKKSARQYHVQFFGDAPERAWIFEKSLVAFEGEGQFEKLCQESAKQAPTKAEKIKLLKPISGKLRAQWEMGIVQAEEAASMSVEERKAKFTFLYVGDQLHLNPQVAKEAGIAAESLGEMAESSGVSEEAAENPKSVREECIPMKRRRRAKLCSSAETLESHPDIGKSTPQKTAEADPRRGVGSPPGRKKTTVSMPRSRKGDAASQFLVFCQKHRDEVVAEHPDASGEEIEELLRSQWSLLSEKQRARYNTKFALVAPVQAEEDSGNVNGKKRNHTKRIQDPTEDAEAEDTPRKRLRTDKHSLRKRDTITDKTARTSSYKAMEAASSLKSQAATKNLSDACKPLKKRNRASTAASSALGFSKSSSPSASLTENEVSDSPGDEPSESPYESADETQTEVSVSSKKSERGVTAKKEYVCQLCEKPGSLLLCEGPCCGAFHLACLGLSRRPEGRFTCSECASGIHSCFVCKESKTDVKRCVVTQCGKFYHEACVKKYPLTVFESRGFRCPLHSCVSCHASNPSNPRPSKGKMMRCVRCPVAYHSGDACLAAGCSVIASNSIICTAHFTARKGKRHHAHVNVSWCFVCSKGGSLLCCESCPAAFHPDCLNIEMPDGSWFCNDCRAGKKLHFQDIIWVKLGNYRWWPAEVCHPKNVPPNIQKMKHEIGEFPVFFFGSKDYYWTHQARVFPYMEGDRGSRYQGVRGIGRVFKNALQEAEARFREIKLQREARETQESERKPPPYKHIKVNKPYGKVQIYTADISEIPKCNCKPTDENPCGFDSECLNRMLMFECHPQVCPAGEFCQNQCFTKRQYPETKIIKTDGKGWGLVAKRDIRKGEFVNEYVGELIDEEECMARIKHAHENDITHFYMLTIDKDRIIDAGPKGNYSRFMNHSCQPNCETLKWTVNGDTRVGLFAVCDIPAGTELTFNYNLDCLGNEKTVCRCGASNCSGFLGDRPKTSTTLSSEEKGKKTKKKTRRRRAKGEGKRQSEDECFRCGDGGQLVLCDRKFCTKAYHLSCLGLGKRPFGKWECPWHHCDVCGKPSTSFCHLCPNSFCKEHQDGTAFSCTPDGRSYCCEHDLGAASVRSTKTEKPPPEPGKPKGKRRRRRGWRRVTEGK

[4] = molecular target: T3, Alkaline phosphatase, tissue-nonspecific isozyme (Homo sapiens, UniProt P05186); test: inhibition of tissue-nonspecific alkaline phosphatase – biochemical, dose response (AID 488882); format: functional
T3 sequence (P05186 whole entry): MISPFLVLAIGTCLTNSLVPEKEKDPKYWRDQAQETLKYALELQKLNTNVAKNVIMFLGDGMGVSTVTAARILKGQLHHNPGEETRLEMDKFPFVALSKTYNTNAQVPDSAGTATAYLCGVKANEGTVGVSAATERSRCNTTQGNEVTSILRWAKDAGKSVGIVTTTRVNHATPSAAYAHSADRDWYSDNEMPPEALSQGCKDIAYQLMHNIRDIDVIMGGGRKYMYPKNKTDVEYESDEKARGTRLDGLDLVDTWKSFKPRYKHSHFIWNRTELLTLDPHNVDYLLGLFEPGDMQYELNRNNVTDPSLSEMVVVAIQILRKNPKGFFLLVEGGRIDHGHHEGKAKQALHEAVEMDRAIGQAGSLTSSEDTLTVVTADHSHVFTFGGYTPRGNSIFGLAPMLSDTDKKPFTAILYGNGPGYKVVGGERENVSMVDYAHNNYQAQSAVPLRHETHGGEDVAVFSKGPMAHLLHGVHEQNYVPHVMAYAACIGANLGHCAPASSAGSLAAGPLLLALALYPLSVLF

[5] = molecular target: T4, Intestinal-type alkaline phosphatase (Homo sapiens, UniProt P09923); test: Dose Response confirmation of uHTS hits from a small molecule inhibitors of human intestinal alkaline phosphatase via a luminescent assay. [Related pubchem assays (depositor defined):AID2544, AID2574]; format: functional
T4 sequence (P09923 whole entry): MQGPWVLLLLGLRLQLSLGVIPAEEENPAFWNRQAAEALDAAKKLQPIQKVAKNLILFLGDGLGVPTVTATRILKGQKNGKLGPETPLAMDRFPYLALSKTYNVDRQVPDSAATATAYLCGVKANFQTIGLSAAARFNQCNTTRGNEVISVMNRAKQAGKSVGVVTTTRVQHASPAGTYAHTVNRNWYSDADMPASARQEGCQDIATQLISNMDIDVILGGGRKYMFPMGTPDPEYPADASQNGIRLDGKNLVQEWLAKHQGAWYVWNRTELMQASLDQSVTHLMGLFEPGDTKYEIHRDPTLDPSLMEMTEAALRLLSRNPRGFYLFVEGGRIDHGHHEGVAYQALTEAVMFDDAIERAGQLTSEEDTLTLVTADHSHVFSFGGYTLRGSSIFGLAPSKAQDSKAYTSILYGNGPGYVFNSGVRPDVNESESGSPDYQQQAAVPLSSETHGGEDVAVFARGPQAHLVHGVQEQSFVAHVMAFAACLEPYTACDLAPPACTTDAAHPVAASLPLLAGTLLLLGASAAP

[6] = molecular target: Eukaryotic translation initiation factor 4E (Mus musculus, UniProt P63073); test: eIF4E–eIF4G protein interaction inhibitors, dose response, biochemical, TR-FRET (AID 855); format: functional;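 note: potency for disrupting eIF4E binding to eIF4GI seen as loss of FRET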
Sequence of Eukaryotic translation initiation factor 4E (P63073 whole entry): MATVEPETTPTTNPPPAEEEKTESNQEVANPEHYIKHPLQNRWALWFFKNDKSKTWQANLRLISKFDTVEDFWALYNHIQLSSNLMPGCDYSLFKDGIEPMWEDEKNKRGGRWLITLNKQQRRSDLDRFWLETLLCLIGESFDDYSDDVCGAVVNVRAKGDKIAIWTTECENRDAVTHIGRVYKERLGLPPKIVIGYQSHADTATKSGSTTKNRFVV

[7] = molecular target: T5, Mannose-6-phosphate isomerase (Homo sapiens, UniProt P34949); test: inhibitors of human PMI, primary screen, biochemical, fluorescence intensity, coupled assay (AID 1209)
T5 sequence (P34949 whole entry): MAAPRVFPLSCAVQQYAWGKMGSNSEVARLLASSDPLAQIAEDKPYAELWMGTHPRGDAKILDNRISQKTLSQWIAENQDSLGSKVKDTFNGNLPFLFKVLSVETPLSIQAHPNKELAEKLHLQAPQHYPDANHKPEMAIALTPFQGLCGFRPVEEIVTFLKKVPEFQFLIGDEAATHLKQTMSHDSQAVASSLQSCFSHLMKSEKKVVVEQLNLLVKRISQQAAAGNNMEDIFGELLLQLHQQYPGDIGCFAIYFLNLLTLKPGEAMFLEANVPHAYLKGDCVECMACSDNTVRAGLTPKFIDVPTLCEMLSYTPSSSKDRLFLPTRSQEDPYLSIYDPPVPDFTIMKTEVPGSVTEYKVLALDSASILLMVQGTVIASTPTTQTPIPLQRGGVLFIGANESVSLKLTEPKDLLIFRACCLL

[8] = molecular target: T4, Intestinal-type alkaline phosphatase; test: human IAP inhibitors, dose response, biochemical, luminescent, uHTS hits, set 2 (AID 488793); format: functional

IC50 [1]: 24.6 µM (not active)
IC50 [2]: 11 µM (active)
AC50 [3]: > 20 µM (inactive)
IC50 [4]: 10.8 µM (active)
IC50 [5]: 9.63 µM (active)
IC50 [6]: 50 µM (inactive)
IC50 [7]: > 50 µM (not active)
IC50 [8]: 10.2 µM (active)
SMILES: CC[n+]1c(/C=C/c2c[nH]c3ccccc23)ccc2cc(C)ccc21
